In ChEMBL document CHEMBL1201862, “PubChem BioAssay data set” (2004):
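Assay format: 96-well plates, 48-hour exposure. GI50 marks 50% less growth.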 Activity calls are given as the source filed them. Cut-off read from the data, not from the text of the source: active = GI50 up to about 1.1 µM and inactive = higher.

Experiments:
Experiment in all cases: NCI anticancer screen, dose series, 48 h
[1] = system: COLO 205
[2] = system: HCT-116
[3] = system: A549
[4] = system: NCI-H23
[5] = system: SF-295
[6] = system: SF-539
[7] = system: SNB-19
[8] = system: OVCAR-4
[9] = system: M14
[10] = system: CAKI-1
[11] = system: HL-60
[12] = system: RPMI-8226
[13] = system: OVCAR-3
[14] = system: ACHN
[15] = system: UO-31
[16] = system: 786-0
[17] = system: KM12
[18] = system: SF-268
[19] = system: UACC-62
[20] = system: SK-MEL-5

Measured: GI50

O=S(=O)(c1ccccc1)C1(C2(S(=O)(=O)c3ccccc3)CCN=N2)CCN=N1 (configuration not stated)
inactive: [1] > 100 µM | [2] > 100 µM | [3] > 100 µM | [4] > 100 µM | [5] > 100 µM | [6] > 100 µM | [7] > 100 µM | [8] > 100 µM | [9] > 100 µM | [10] > 100 µM | [11] > 100 µM | [12] > 100 µM | [13] > 100 µM | [14] > 100 µM | [15] > 100 µM | [16] > 100 µM | [17] > 100 µM | [18] > 100 µM

Cc1nc(-c2nc(C)c(C(=O)/C=C/c3ccc([N+](=O)[O-])cc3)s2)sc1C(=O)/C=C/c1ccc([N+](=O)[O-])cc1
inactive: [1] > 100 µM | [2] > 100 µM | [3] > 100 µM | [4] > 100 µM | [5] > 100 µM | [6] > 100 µM | [7] > 100 µM | [9] > 100 µM | [10] > 100 µM | [11] > 100 µM | [12] > 100 µM | [13] > 100 µM | [14] > 100 µM | [19] > 100 µM | [15] > 100 µM | [16] > 100 µM | [20] > 100 µM | [17] > 100 µM | [18] > 100 µM

COc1cc2c(c(OC)c1)/C(=C/Sc1ccccc1)C(=O)N(C(C)(C)C)C2
inactive: [1] 26.2 µM | [2] 16.4 µM | [4] 26.3 µM | [5] 27.2 µM | [6] 44.7 µM | [8] 33.1 µM | [10] 32.7 µM | [11] 25 µM | [12] 26.1 µM | [13] 22.5 µM | [14] 35.3 µM | [19] 24.3 µM | [16] 28.5 µM | [20] 17.5 µM | [17] 24.3 µM | [18] 14.1 µM

CSC(=N/C=C/c1ccccc1)SC
inactive: [1] > 100 µM | [2] > 100 µM | [3] 60.3 µM | [4] > 100 µM | [5] > 100 µM | [6] > 100 µM | [7] > 100 µM | [8] > 100 µM | [9] > 100 µM | [10] > 100 µM | [11] 49.9 µM | [12] > 100 µM | [13] 51.4 µM | [14] > 100 µM | [19] > 100 µM | [15] > 100 µM | [16] > 100 µM | [17] > 100 µM | [18] > 100 µM

COC(=O)C(=O)C(C(=O)C(=O)Nc1ccc(C)cc1)c1nc2ccc(C(=O)c3ccccc3)cc2nc1O (configuration not stated)
inactive: [2] > 100 µM | [3] > 100 µM | [4] > 100 µM | [5] 65 µM | [6] > 100 µM | [7] > 100 µM | [8] 49 µM | [10] 39.4 µM | [11] 30.1 µM | [12] > 100 µM | [13] > 100 µM | [14] > 100 µM | [19] > 100 µM | [15] 51.2 µM | [16] > 100 µM | [20] 73.1 µM | [17] 30.4 µM | [18] 73.6 µM

C/C(=N\NC(=N)N)C(CN1CCCCC1)C(c1ccccc1)c1c(O)c2ccccc2oc1=O (configuration not stated)
inactive: [1] > 100 µM | [2] > 100 µM | [3] > 100 µM | [4] > 100 µM | [5] > 100 µM | [6] > 100 µM | [7] > 100 µM | [8] > 100 µM | [9] > 100 µM | [10] > 100 µM | [11] > 100 µM | [12] > 100 µM | [13] > 100 µM | [14] > 100 µM | [19] > 100 µM | [16] > 100 µM | [18] > 100 µM
